Test results published in patent US11691949B2, “Quinoline sulfonamide compounds and their use as antibacterial agents” (OTAGO INNOVATION LIMITED, priority 2017, dated 2023).
≈ marks a conversion by molar mass, not a printed value. Read-outs that look alike come from different tables or passages of the source.

What was measured:
Type in all cases: cell-based
[1] = system: S. aureus ATCC 6538; assay: MIC by broth microdilution, S. aureus; conditions: Staphylococcus aureus, read-out: S. aureus ATCC 6538 MIC
Experimental: (§1) Antibacterial susceptibility testing was performed in triplicate (biological) by measuring minimum inhibitory concentrations (MICs) by broth microdilution in 96-well flat bottom microtiter plates (ThermoFisher Scientific, New Zealand). S. uberis ATCC 19436, S. aureus ATCC 6538, or E. coli ATCC 10596 cells grown overnight were diluted to an OD600 of approximately 0.025, so that the final concentration of cells in the MIC assay was approximately 5×10^5 cfu/mL in media as follows: S. uberis; Todd Hewitt Broth (THB), S. aureus; Tryptic Soy Broth (TSB) and Cation Adjusted Muller Hinton Broth (CAMHB), and E. coli; Lysogeny Borth (LB) and CAMHB, before being dispensed into microtiter wells. As required additional sterile Zinc Sulphate (Heptahydrate) was supplemented into the media, so the final concentration was 50 μM. Test compounds were added to starting wells and two-fold serial dilutions were undertaken to generate a range of inhibitor concentrations at a final volume of 200 μl. Media and test compound-free (untreated) controls were included in each microtiter plate in triplicate. After 24 h incubation at 37° C. and 200 rpm, the OD600 of wells were read using a Varioskan Flash plate reader (ThermoFisher Scientific, New Zealand). The MIC was reported as the lowest concentration of the test compound for which no growth occurred, as determined by OD600 readings. The minimum bactericidal concentration (MBC) was determined using the Miles-Misra drop-plate method to measure the viability of cells in response to test compound challenge.

[2] = system: E. coli ATCC 10596; assay: MIC by broth microdilution, E. coli; conditions: Escherichia coli, read-out: E. coli ATCC 10536 MIC
Experimental: as §1

[3] = system: S. uberis ATCC 19436; assay: MIC by broth microdilution, S. uberis; conditions: Streptococcus uberis, read-out: S. uberis ATCC 19436 MIC
Experimental: as §1

[4] = ATCC 10536 / ATCC 10596, No Zinc
[5] = ATCC 10536 / ATCC 10596, Zinc (50 μM)

| MIC ([1]; ATCC6538, No Zinc) | MIC ([1]; ATCC6538, Zinc (50 μM)) | MIC [2, 4] | MIC [2, 5] | MIC ([3]; ATCC19436, No Zinc) | MIC ([3]; ATCC19436, Zinc (50 μM)) | SMILES |
| --- | --- | --- | --- | --- | --- | --- |
| > 256 µg/mL | > 256 µg/mL | > 256 µg/mL | > 256 µg/mL | > 256 µg/mL | 0.25 µg/mL (≈ 0.715 µM) | CN(C)Cc1ccc2cccc(NS(=O)(=O)C3CCOCC3)c2n1 [ZDR502, N-(2-((Dimethylamino)methyl)quinolin-8-yl)tetrahydro-2H-pyran-4-sulfonamide] |
| > 256 µg/mL | > 256 µg/mL | > 256 µg/mL | > 256 µg/mL | 256 µg/mL (≈ 652 µM) | 2 µg/mL (≈ 5.1 µM) | CN(C)Cc1ccc2cccc(NS(=O)(=O)c3cccc4cnccc34)c2n1 [ZDR339, N-(2-((Dimethylamino)methyl)quinolin-8-yl)isoquinoline-5-sulfonamide] |
| > 256 µg/mL | > 256 µg/mL | > 256 µg/mL | > 256 µg/mL | > 256 µg/mL | 4 µg/mL (≈ 11.6 µM) | CN(C)Cc1ccc2cccc(NS(=O)(=O)c3cnn(C)c3)c2n1 [ZDR194, N-(2-((Dimethylamino)methyl)quinolin-8-yl)-1-methyl-1H-pyrazole-4-sulfonamide] |
| 64 µg/mL (≈ 135 µM) | 64 µg/mL (≈ 135 µM) | 128 µg/mL (≈ 271 µM) | > 256 µg/mL | > 256 µg/mL | 4 µg/mL (≈ 8.47 µM) | O=S(=O)(Nc1cccc2ccc(CNCc3cccnc3)nc12)c1ccc(C(F)(F)F)cc1 [ZDR101, N-(2-(((Pyridin-3-ylmethyl)amino)methyl)quinolin-8-yl)-4-(trifluoromethyl)benzenesulfonamide] |
| 256 µg/mL (≈ 551 µM) | 128 µg/mL (≈ 276 µM) | > 256 µg/mL | > 256 µg/mL | 64 µg/mL (≈ 138 µM) | 0.5 µg/mL (≈ 1.08 µM) | CN1CCN(Cc2ccc3cccc(NS(=O)(=O)c4ccc(C(F)(F)F)cc4)c3n2)CC1 [ZDR089, N-(2-((4-Methylpiperazin-1-yl)methyl)quinolin-8-yl)-4-(trifluoromethyl)benzenesulfonamide] |
| 256 µg/mL (≈ 720 µM) | > 256 µg/mL | > 256 µg/mL | > 256 µg/mL | 256 µg/mL (≈ 720 µM) | 0.25 µg/mL (≈ 0.703 µM) | Cc1ccc(S(=O)(=O)Nc2cccc3ccc(CN(C)C)nc23)cc1 [ZDR062, N-(2-((Dimethylamino)methyl)quinolin-8-yl)-4-methylbenzenesulfonamide] |
| > 256 µg/mL | > 256 µg/mL | > 256 µg/mL | > 256 µg/mL | > 256 µg/mL | > 256 µg/mL | CN(CCN(C)Cc1ccc2cccc(NS(=O)(=O)c3ccc(C(F)(F)F)cc3)c2n1)Cc1ccc2cccc(NS(=O)(=O)c3ccc(C(F)(F)F)cc3)c2n1 [ZDR036, N,N′-(((Ethane-1,2-diylbis(methylazanediyl))bis(methylene))-bis(quinoline-2,8-diyl))bis(4-(trifluoromethyl)benzenesulfonamide)] |
| > 256 µg/mL | 32 µg/mL (≈ 81.5 µM) | > 256 µg/mL | > 256 µg/mL | 64 µg/mL (≈ 163 µM) | 0.25 µg/mL (≈ 0.637 µM) | CN(C)Cc1ccc2cccc(NS(=O)(=O)c3cccc4cccnc34)c2n1 [ZDR340, N-(2-((Dimethylamino)methyl)quinolin-8-yl)quinoline-8-sulfonamide] |
| > 256 µg/mL | > 256 µg/mL | > 256 µg/mL | > 256 µg/mL | > 256 µg/mL | 0.125 µg/mL (≈ 0.346 µM) | CN(C)Cc1ccc2cccc(NS(=O)(=O)CCC(F)(F)F)c2n1 [ZDR316, N-(2-((Dimethylamino)methyl)quinolin-8-yl)-3,3,3-trifluoropropane-1-sulfonamide] |
| > 256 µg/mL | > 256 µg/mL | > 256 µg/mL | > 256 µg/mL | > 256 µg/mL | 1 µg/mL (≈ 2.73 µM) | CN(C)Cc1ccc2cccc(NS(=O)(=O)c3ccccc3C#N)c2n1 [ZDR077, N-(2-((Dimethylamino)methyl)quinolin-8-yl)-2-cyanobenzenesulfonamide] |
| 256 µg/mL (≈ 585 µM) | > 256 µg/mL | > 256 µg/mL | > 256 µg/mL | 128 µg/mL (≈ 293 µM) | 0.125 µg/mL (≈ 0.286 µM) | CCN(CC)Cc1ccc2cccc(NS(=O)(=O)c3ccc(C(F)(F)F)cc3)c2n1 [ZDR028, N-(2-((Diethylamino)methyl)quinolin-8-yl)-4-(trifluoromethyl)-benzenesulfonamide] |
| > 256 µg/mL | > 256 µg/mL | > 256 µg/mL | > 256 µg/mL | > 256 µg/mL | 4 µg/mL (≈ 8.47 µM) | O=S(=O)(Nc1cccc2ccc(CNCc3ccncc3)nc12)c1ccc(C(F)(F)F)cc1 [ZDR110, N-(2-(((Pyridin-4-ylmethyl)amino)methyl)quinolin-8-yl)-4-(trifluoromethyl)benzenesulfonamide] |
| > 256 µg/mL | > 256 µg/mL | > 256 µg/mL | > 256 µg/mL | > 256 µg/mL | 1 µg/mL (≈ 2.92 µM) | CN(C)Cc1ccc2cccc(NS(=O)(=O)c3cccnc3)c2n1 [ZDR328, N-(2-((Dimethylamino)methyl)quinolin-8-yl)pyridine-3-sulfonamide] |
| 62 µg/mL (≈ 132 µM) | 32 µg/mL (≈ 68.2 µM) | 256 µg/mL (≈ 545 µM) | 256 µg/mL (≈ 545 µM) | 32 µg/mL (≈ 68.2 µM) | 4 µg/mL (≈ 8.52 µM) | O=S(=O)(Nc1cccc2ccc(CN(CCO)CCO)nc12)c1ccc(C(F)(F)F)cc1 [ZDR094, N-(2-((Bis(2-hydroxyethyl)amino)methyl)quinolin-8-yl)-4-(trifluoromethyl)benzenesulfonamide] |
| > 256 µg/mL | 64 µg/mL (≈ 134 µM) | > 256 µg/mL | > 256 µg/mL | 64 µg/mL (≈ 134 µM) | 0.125 µg/mL (≈ 0.262 µM) | O=S(=O)(Nc1cccc2ccc(CNCc3cccs3)nc12)c1ccc(C(F)(F)F)cc1 [ZDR107, N-(2-(((Thiophen-2-ylmethyl)amino)methyl)quinolin-8-yl)-4-(trifluoromethyl)benzenesulfonamide] |
| > 256 µg/mL | 256 µg/mL (≈ 765 µM) | > 256 µg/mL | > 256 µg/mL | 256 µg/mL (≈ 765 µM) | 0.5 µg/mL (≈ 1.5 µM) | CN(C)Cc1ccc2cccc(NS(=O)(=O)N3CCCC3)c2n1 [ZDR204, N-(2-((Dimethylamino)methyl)quinolin-8-yl)pyrrolidine-1-sulfonamide] |
| 64 µg/mL (≈ 125 µM) | 128 µg/mL (≈ 250 µM) | 128 µg/mL (≈ 250 µM) | 256 µg/mL (≈ 501 µM) | > 256 µg/mL | > 256 µg/mL | N/C(=N\[N+](=O)[O-])NCCNCc1ccc2cccc(NS(=O)(=O)c3ccc(C(F)(F)F)cc3)c2n1 [ZDR145, (E)-N-(2-(((2-(2-Nitroguanidino)ethyl)amino)methyl)quinolin-8-yl)-4-(trifluoromethyl)benzenesulfonamide] |
| 32 µg/mL (≈ 83.8 µM) | 128 µg/mL (≈ 335 µM) | 256 µg/mL (≈ 670 µM) | > 256 µg/mL | 128 µg/mL (≈ 335 µM) | 0.125 µg/mL (≈ 0.327 µM) | CN(C)Cc1ccc2cccc(NS(=O)(=O)c3ccc(Cl)s3)c2n1 [ZDR326, 5-Chloro-N-(2-((dimethylamino)methyl)quinolin-8-yl)thiophene-2-sulfonamide] |
| > 256 µg/mL | 128 µg/mL (≈ 398 µM) | > 256 µg/mL | > 256 µg/mL | 256 µg/mL (≈ 796 µM) | 0.25 µg/mL (≈ 0.778 µM) | CCCCS(=O)(=O)Nc1cccc2ccc(CN(C)C)nc12 [ZDR321, N-(2-((Dimethylamino)methyl)quinolin-8-yl)butane-1-sulfonamide] |

| SMILES | MIC ([1]; ATCC6538, No Zinc) | MIC ([1]; ATCC6538, Zinc (50 μM)) | MIC [2, 4] | MIC [2, 5] | MIC ([3]; ATCC19436, No Zinc) | MIC ([3]; ATCC19436, Zinc (50 μM)) |
| --- | --- | --- | --- | --- | --- | --- |
| CC(C)(C)OC(=O)CNCc1ccc2cccc(NS(=O)(=O)c3ccc(C(F)(F)F)cc3)c2n1 [ZDR041, N-(2-(((tert-Butoxycarbonylmethyl)amino)methyl)quinolin-8-yl)-4-(trifluoromethyl)benzenesulfonamide] | 64 µg/mL (≈ 129 µM) | > 256 µg/mL | > 256 µg/mL | > 256 µg/mL | > 256 µg/mL | 0.5 µg/mL (≈ 1.01 µM) |
